Laboratory results reported in patent US20200371122A1, “BIOMARKER FOR SENESCENT CELLS” (Buck Institute for Research on Aging, priority 2017, published 2020).

Legend:
Format in all cases: cell-based, human
[1] = test system: PPARγ; assay: PPARγ luciferase reporter in irradiated IMR-90 fibroblasts; conditions: senescent cells, 10 days
Excerpt: Lentiviral NF-κB reporter constructs (SA Biosciences) and baculoviral PPAR gamma constructs (Signosis) were transduced into proliferating cells. Following treatment, luciferase was extracted using Passive Lysis Buffer (Promega) and analyzed using a commercially available kit (Promega) using a Perkin-Elmer Victor™ X3 luminometer.

[2] = test system: IMR-90 fibroblasts; conditions: for number of cells following irradiation: 5 Gy IR, 10 days
Description: Human fetal lung fibroblasts (IMR-90) were cultured in Dulbecco's modified eagle medium (DMEM) supplemented with 10% FBS and penicillin/streptomycin. LL 29 (AnHa) cells were obtained from the ATCC and growth to confluence using the ATCC protocol, but were subcultured as described for IMR-90 before initiation of all experiments. Quiescence was induced by replacing culture media with media containing 0.2% FBS. MCF-7 and MDA-MB-231 breast cancer cells were cultured in RPMI supplemented with 10% FBS and penicillin/streptomycin. All cells were cultured at 3% O2, and used between 25 and 40 population doublings. All cells were mycoplasma free.
RNA was extracted from cells or tissues using commercially available kits (Isolate II—Bioline for cells; Direct-zol—Zymo for tissues) according to the manufacturer's instructions. cDNA synthesis was performed using a High Capacity cDNA Reverse Transcription Kit (Thermo Fisher) according to the manufacturer's instructions. Quantitative PCR was performed on a LightCycler 480 II (Roche) using primers and probes designed for the Universal Probe Library. Primers and probes used for human transcripts were ACTB: 5′-CCAACCGCGAGAAGATGA (SEQ ID NO:1), 5′-TCCATCACGATGCCAGTG (SEQ ID NO:2), Probe #64; TUBA: 5′-cttcgtctccgccatcag (SEQ ID NO:3), 5′-ttgccaatctggacacca (SEQ ID NO:4), Probe #58; ALOX5: 5′-[…] (SEQ ID NO:5), 5′-[…] (SEQ ID NO:6), Probe #64; ALOX5AP: 5′-ggtctgcggggctacttt (SEQ ID NO:7), 5′-[…] (SEQ ID NO:8), Probe #18; ALOX12: 5′-[…] (SEQ ID NO:9), 5′-agccaggtcgtcaggag (SEQ ID NO:10), Probe #32; ALOX15: 5′-[…] (SEQ ID NO:11), 5′-[…] (SEQ ID NO:12), Probe #76; ALOX15B: 5′-[…] (SEQ ID NO:13), 5′-actgggaggcgaagaagg (SEQ ID NO:14), Probe #51; AKR1C1: 5′-catgcctgtcctgggattt (SEQ ID NO:15), 5′-[…] (SEQ ID NO:16), Probe #49; AKR1C2: 5′-ctatgcgcctgcagaggt (SEQ ID NO:17), 5′-[…] (SEQ ID NO:18), Probe #31; AKR1C3: 5′-[…] (SEQ ID NO:19), 5′-[…] (SEQ ID NO:20), Probe #78; CYSLTR2: 5′-[…] (SEQ ID NO:21), 5′-[…] (SEQ ID NO:22), Probe #18; DPEP1: 5′-gacgtcctgaggctggtg (SEQ ID NO:23), 5′-[…] (SEQ ID NO:24), Probe #9 (SEQ ID NO:25), ELOVL2: 5′-[…] (SEQ ID NO:26), 5′-[…] (SEQ ID NO:27), Probe #53; ELOVL4: 5′-catttggcccatggattc (SEQ ID NO:28), 5′-[…] (SEQ ID NO:29), Probe #31; ELOVL5: 5′-cccttccatgcgtccata (SEQ ID NO:30), 5′-[…] (SEQ ID NO:31), Probe #31; EPHX2: 5′-ttctgctggacaccctgaa (SEQ ID NO:32), 5′-[…] (SEQ ID NO:33), Probe #45; GPX4: 5′-ttcccgtgtaaccagttcg (SEQ ID NO:34), 5′-[…] (SEQ ID NO:35), Probe #36; LTA4H: 5′-ctgctctcacggtccagtc (SEQ ID NO:36), 5′-[…] (SEQ ID NO:37), Probe #64; LTBR2: 5′-[…] (SEQ ID NO:38), 5′-[…] (SEQ ID NO:39), Probe #33; LTC4S: 5′-[…] (SEQ ID NO:40), 5′-[…] (SEQ ID NO:41), Probe #18; PTGDS: 5′-[…] (SEQ ID NO:42), 5′-[…] (SEQ ID NO:43), Probe #36; PTGES: 5′-agagatgcctgcccacag (SEQ ID NO:44), 5′-tggccaccacgtacatctt (SEQ ID NO:45), Probe #4; PTGES2: 5′-[…] (SEQ ID NO:46), 5′-[…] (SEQ ID NO:47), Probe #49; PTGES3 (SEQ ID NO:48), 5′-[…] (SEQ ID NO:49), 5′-[…] (SEQ ID NO:50), Probe #48; PTGIS: 5′-[…] (SEQ ID NO:51), 5′-[…] (SEQ ID NO:52), Probe #45; PTGR1: 5′-atgatggggcagcaagtg (SEQ ID NO:53), 5′-cccatcagaaatggagtgc (SEQ ID NO:54), Probe #64; PTGS1: 5′-[…] (SEQ ID NO:55), 5′-gtggtggtccatgttcctg (SEQ ID NO:56), Probe #81; PTGS2: 5′-gatccccagggctcaaac (SEQ ID NO:57), 5′-[…] (SEQ ID NO:58), Probe #61; TBXAS1: 5′-[…] (SEQ ID NO:59), 5′-tgcctcccgtgtgaatct (SEQ ID NO:60), Probe #73; AREG: 5′-[…] (SEQ ID NO:61), 5′-[…] (SEQ ID NO:62), Probe #73; CCL2: 5′-AGTCTCTGCCGCCCTTCT (SEQ ID NO:63), 5′-GTGACTGGGGCATTGATTG (SEQ ID NO:64), Probe #40; CCL27: 5′-[…] (SEQ ID NO:65), 5′-gctgggtggcagtaggaat (SEQ ID NO:66), Probe #18; CXCL1: 5′-[…] (SEQ ID NO:67), 5′-[…] (SEQ ID NO:68), Probe #52; HGF: 5′-[…] (SEQ ID NO:69), 5′-[…]

[3] = test system: IMR-90 fibroblasts; assay: Oncogenic ras-induced senescence of IMR-90 fibroblasts; conditions: RasV12 lentivirus, 7 days treatment
Excerpt: Senescence was induced by irradiation with 10 Gy of ionizing radiation. Non-senescent controls (proliferating or quiescent) were placed in the irradiator for an identical period of time without turning on the irradiator. Oncogene-induced senescence was induced via lentiviral overexpression of HRAS^V12, as described previously (Wiley et al. (2016) Cell Metab. 23: 303-314).

Row | Structure (SMILES) | PPARγ activation reduced [1] [%] | number of cells following irradiation [2] | cell number relative to DMSO-treated SEN(IR) cells ([2]; SEN(IR) cells counted for IL-6 ELISA normalization) | ras-induced senescence (IL-6 secretion, EdU incorporation, colony formation) [3]
1 | CS(=O)(=O)Nc1ccc([N+](=O)[O-])cc1OC1CCCCC1 [NS-398] | ~50 | significantly increased | increase in cell number | 
2 | CC(c1cc2ccccc2s1)N(O)C(N)=O (centres unmarked) [zileuton] |  | mildly increased |  | blunting
